According to patent publication US20230346815A1, “LMP7-SELECTIVE INHIBITORS FOR THE TREATMENT OF BLOOD DISORDERS AND SOLID TUMORS” (Merck Patent GmbH, priority 2020, published 2023):
“Also recorded” adds a separate entry of the source.

What was measured:
[1] = system: NCI-H929; assay: Efficacy in the multiple myeloma xenograft model NCI-H929; assay type: in vivo, mouse; conditions: t(4;14)-positive NCI-H929 xenograft, compound 9 10 mg/kg per os once daily
Method: The human multiple myeloma cell line NCI-H929 was obtained from the American Type Culture Collection (ATCC). 100 μL of a suspension of 5 million cells in PBS mixed 1:1 with Matrigel was injected per mouse. Bortezomib, carfilzomib and compound 9 were formulated and applied as described in Example 1. Mean tumor volume and SEM are indicated.
NCI-H929 xenograft tumors were established as described in Example 2. Compound 9 and ixazomib were formulated and applied as described in Example 1.

[2] = target: T1, LMP7 (Homo sapiens, UniProt P20618+P28062); assay: LMP7 activity in MM.1S xenograft tumors in vivo, cleavage of (Ac-ANW)2R110; design: from tissue; host or cells: MM.1S xenograft tumor lysate (tumors grown in mice); species or system mouse; conditions: compound 9 applied once per os 10 mg/kg, vs control and bortezomib, carfilzomib, ixazomib single dose, FIG. 6
Method: MM.1S xenograft tumors were established as described in Example 4. Compound 9, bortezomib, carfilzomib and ixazomib were formulated as described in Example 1. Compound 9 was applied once per os to mice at a dose of 10 mg/kg. Bortezomib was applied once i.v. to mice at a dose of 0.5 mg/kg. Ixazomib was applied once per os to mice at a dose of 3 mg/kg. Carfilzomib was applied once i.v. at a dose of 3 mg/kg. MM1S tumors were collected immediately following mouse euthanasia and lysed as described previously (Buchstaller et al., 2019). For assessment of LMP7 activity, 10 μg of tumor lysate protein in a total volume of 50 μL was mixed in 96-well plates with 50 μl of a buffer containing 100 mM HEPES pH 7.6, 60 mM MgSO4, 1 mM EDTA, 40 μg/ml digitonin and the fluorogenic LMP7 substrate (Ac-ANW)2R110 (from Biomol) at a final concentration of 10 μM. Plates were then shaken briefly, incubated for 60 min at 37° C. and then centrifuged at 300×g. Fluorescence (excitation 485 nm, emission 535 nm) was measured using an EnVision 2104 plate reader (PerkinElmer).

[3] = system: Caspase-3/-7 activity; assay: Caspase 3/7 activity in MM.1S xenograft tumors in vivo; design: species or system mouse; conditions: compound 9 applied once per os 10 mg/kg, vs vehicle control and bortezomib, carfilzomib, ixazomib single dose, FIG. 7
Method: MM.1S xenograft tumors samples from the same experiment described in Example 6 were used for assessment of Caspase-3/-7 activity as an indication of tumor cell apoptosis. 50 μg of tumor lysate protein in a total volume of 50 μL was mixed with the Caspase-Glo®3/7 Reagent (Promega) in 96-well plates according to the manufacturer's instruction. Luminescence was measured using an Envision 2104 plate reader (PerkinElmer).

[4] = system: OPM-2; assay: Efficacy in the multiple myeloma xenograft model OPM-2; assay type: in vivo, mouse; conditions: t(4;14)-positive OPM-2 xenograft; compound 9 10 mg/kg per os once daily; vs bortezomib 0.5 mg/kg i.v., ixazomib 3 mg/kg per os, carfilzomib 2 mg/kg i.p., each twice per week; FIG. 1
Method: The human multiple myeloma cell line OPM-2 was obtained from the German Collection of Microorganisms and Cell Cultures GmbH (DSMZ). 100 μL of a suspension of 5 million cells in phosphate-buffered saline (PBS) mixed 1:1 with Matrigel (Becton Dickinson) was injected per mouse. Bortezomib was formulated in Mannitol (Merck KGaA) in 0.9% NaCl and applied intravenously (i.v.) to mice at a dose of 0.5 mg/kg twice per week. Ixazomib was formulated in 5% KLEPTOSE® in water and applied orally (per os) to mice at a dose of 3 mg/kg twice per week. Carfilzomib was formulated in 5% KLEPTOSE® (AppliChem) in 50 mM sodium citrate buffer and applied by intraperitoneal (i.p.) injection to mice at a dose of 2 mg/kg twice per week. Compound 9 was formulated in 0.5% METHOCEL™ Premium K4M (Colorcon) and 0.25% Tween® 20 in PBS at applied per os to mice once daily at a dose of 10 mg/kg. Mean tumor volume and standard error of the mean (SEM) are indicated.

[5] = system: MM.1S; assay: Efficacy in the multiple myeloma xenograft model MM.1S; assay type: in vivo, mouse; conditions: t(14;16)-positive MM.1S xenograft; compound 9 10 mg/kg per os once daily; vs bortezomib, ixazomib, carfilzomib 3 mg/kg i.v. twice per week; FIG. 4
Method: The human multiple myeloma cell line MM.1S was obtained from the ATCC. 100 μL of a suspension of 5 million cells in PBS was injected per mouse. Bortezomib, ixazomib and compound 9 were formulated and applied as described in Example 1. Carfilzomib was formulated as described in Example 1 and applied intravenously (i.v.) to mice at a dose of 3 mg/kg twice per week.

[6] = system: RPMI 8826; assay: Efficacy in the multiple myeloma xenograft model RPMI 8826; assay type: in vivo, mouse; conditions: t(14;16)-positive RPMI 8826 xenograft; compound 9 10 mg/kg per os once daily; vs bortezomib, carfilzomib, ixazomib; FIG. 5
Method: The human multiple myeloma cell line RPMI 8826 was obtained from the ATCC. 100 μL of a suspension of 5 million cells in PBS mixed 1:1 with Matrigel was injected per mouse. Bortezomib, carfilzomib, ixazomib and compound 9 were formulated and applied as described in Example 1.

[7] = target: T1, LMP7; conditions: as previously described, Singh et al., 2011; cited from earlier work

SMILES | in vivo anti-tumor activity (mean tumor volume) ([1]; vs bortezomib and carfilzomib, FIG. 2) | in vivo anti-tumor activity (mean tumor volume) ([1]; vs ixazomib 3 mg/kg per os twice per week, FIG. 3) | LMP7 activity in tumor lysate [2] | Caspase-3/-7 activity (induction of apoptosis) in tumor lysate [3] | in vivo anti-tumor activity (mean tumor volume) [4] | in vivo anti-tumor activity (mean tumor volume) [5] | in vivo anti-tumor activity (mean tumor volume) [6] | LMP7 selectivity [7]
O=C(N[C@@H](Cc1coc2ccccc12)B(O)O)[C@@H]1C[C@H]2CC[C@@H]1O2 [Compound 9, [(1R)-2-(1-benzofuran-3-yl)-1-{[(1S,2R,4R)-7-oxabicyclo[2.2.1]heptan-2-yl]formamido}ethyl]boronic acid] | increased efficacy as compared to bortezomib and carfilzomib | comparable activity of compound 9 as compared to the pan-proteasome inhibitor ixazomib | stronger and more prolonged than for the other pan-proteasome inhibitors tested; also recorded: significant reduction of enzymatic function of LMP7 | longer than compared to the pan-proteasome inhibitors; also recorded: significant induction of apoptosis | increased efficacy as compared to bortezomib, carfilzomib, and ixazomib | increased anti-tumor activity of compound 9 as compared to bortezomib and carfilzomib, and comparable activity as compared to ixazomib | increased in vivo activity of compound 9 as compared to ixazomib and carfilzomib, and comparable activity when compared to bortezomib | 
CC1=C(C(=O)N[C@H](C)C(=O)N[C@@H](Cc2c[nH]c3ccccc23)C(=O)N[C@@H](Cc2ccccc2)C(=O)[C@@]2(C)CO2)Cc2ccccc21 [PR-924] |  |  |  |  |  |  |  | 100 fold
